Like-named read-outs stand apart in the source and are kept apart here.
Legend:
[1] = cited from earlier work; for metabolism and defluorination relative to the undeuterated compound: U.S. Patent 4,154,971, U.S. Patent 4,153,636
[2] = cited from earlier work
mice = details: cited from earlier work
Male Sprague-Dawley rats = experiment: Induction of anesthesia in exposure chamber at 3% anesthetic; format: in vivo; details: initial concentration 3% anesthetic in 100% oxygen, 3.8 L chamber
Experimental: (§1) The animals were exposed in a 3.8 L plastic exposure chamber with an atmosphere of 100% oxygen. Male Sprague-Dawley rats (200-220g, 4 per group) were placed in the chamber and the chamber was flushed with oxygen and sealed. Anesthetic was introduced into the chamber in liquid form via an injection port. Quantities were introduced to give initial concentrations of 3% anesthetic (enflurane, 464 µl; sevoflurane and D2-sevoflurane, 524 µl). The rats became anesthetized within 4-6 minutes after introduction of each anesthetic. Oxygen and carbon dioxide were monitored periodically during the exposure period with an Ohmeda 6000 multi-gas monitor.

[3] = Incubations with soda lime in static systems; format: physicochemical; details: for degradation products with soda lime: static system
[4] = In vivo metabolism: plasma fluoride after 30 minute inhalation exposure; design: species or system Male Sprague-Dawley rats; details: 30 minute exposure, 3% anesthetic
Source text: Untreated rats or rats treated with isoniazid or phenobarbital were exposed to D2-sevoflurane, sevoflurane, or enflurane to determine the relative rates of fluoride production in vivo.
as §1
Following a 30 minute exposure period, the chamber was flushed with 100% oxygen for 5 minutes and the animals rapidly awakened. The rats were immediately removed and injected i.p. with 80 mg/kg secobarbital. While anesthetized 3 to 4 ml of blood were withdrawn by cardiac puncture within 15 minutes of termination of anesthetic exposure (within 10 minutes of removal from the chamber). Plasma was prepared and fluoride analyzed as described above.

rat liver microsomes = format: in vitro ADME, male Sprague-Dawley rats; details: for defluorination by rat liver microsomes, nmol F^- /mg protein/30 min ± S.E.: 1 µl anesthetic per incubation, mean and standard error of triplicate determinations; for percent decline from sevoflurane values (degree of inhibited metabolism): following correction for background (0.43)
Experimental: The metabolism of D2-sevoflurane is expected to liberate one fluoride ion for each molecule metabolized by cytochrome P450 since the metabolism of sevoflurane liberates fluoride and hexafluoroisopropanol. To determine the metabolism of D2-sevoflurane relative to sevoflurane and enflurane, these anesthetics were incubated with hepatic microsomes from untreated male Sprague-Dawley rats (200-230g), or rats treated with isoniazid (80mg/kg, i.p. for 5 days), or phenobarbital (0.2% in the drinking water for 4 days). Isoniazid induces the cytochrome P450 isozyme P450 2E1 which is thought to metabolize the volatile anesthetics, and phenobarbital induces several forms also shown to play a role in anesthetic metabolism in the rat.
Each incubation vial (6 ml plastic vial) contained 3 ml of 5 mg/ml microsomal protein in a 0.1 M sodium phosphate buffer, pH 7.4. An NADPH generating system was added to cytochrome P450 activity, and the NADPH generating system was omitted from control incubations. […] Reactions were stopped by placing the vials on ice. Fluoride was assayed in the microsomal mixtures using fluoride ion-specific electrodes (Fisher Scientific) and a 720A Orion pH/ISE meter. Following incubation microsomes were mixed with an equal volume of TISABII buffer for fluoride analysis. Fluoride in each sample was determined from standard curves constructed using fluoride standards (10^-7 to 10^-3 M NaF) prepared from a commercially available standard solution (10^-1 M NaF).

[5] = Breakdown by soda lime in an anesthesia circuit (gas chromatography); format: physicochemical; details: for production of volatile degradation by-products: soda lime temperature maintained in the range of 4°C to 27°C
Experimental: An anesthesia circuit containing fresh soda lime (1.5 kg) was set up with an anesthesia machine (Foregger F 500). […] The gases were re-circulated at a total circuit flow rate of 1.5 liters per minute (a relatively low clinical total flow rate) in a closed system with a respirator. Carbon dioxide was added to the circuit at a constant rate of 200 ml per minute. This set up the conditions for "worst case" breakdown of sevoflurane by soda lime.
Experiments were conducted at exothermic temperature versus with the soda lime canister immersed in an ice bath. […] Products were continually detected for the remainder of the experiments (up to eight hours) by gas chromatography.

[6] = cited from earlier work; remark: listed apart in the source
[7] = Animal Treatment: Phenobarbital

## [2H]C(F)(Cl)C(F)(F)OC(F)F (stereo not drawn) [1,1,2-trifluoro-2-chloro-2-deuteroethyl-difluoromethyl ether]
[1]
  metabolism and defluorination relative to the undeuterated compound: slower metabolism and thus slower defluorination

## [2H]C(F)(Br)C(F)(F)OC(F)F (stereo not drawn) [1,1,2-trifluroro-2-bromo-2-deuteroethyl difluoromethyl ether]
[1]
  metabolism and defluorination relative to the undeuterated compound: slower metabolism and thus slower defluorination

## [2H]C(Cl)(Cl)C(F)(F)OC [1,1-difluoro-2,2-dichloro-2-deuteroethyl methyl ether]
[1]
  metabolism and defluorination relative to the undeuterated compound: more readily metabolized into inorganic fluoride than the undeuterated compound
[1]; listed as 1,1 difluoro-2-2-dichloro-2-deuteroethyl methyl ether
  metabolism and defluorination relative to the undeuterated compound: increase inorganic fluoride release

## [2H]C(Cl)(Cl)C(F)(F)OC(F)F [1,1-difluoro-2-deutero-2,2-dichloroethyl difluoromethyl ether]
[1]
  metabolism and defluorination relative to the undeuterated compound: slower metabolism and thus slower defluorination

## [2H]C([2H])([2H])OC(F)(F)C(Cl)Cl [2,2-dichloro-1,1-difluoro-1-methoxy-D3-ethane]
[1]
  metabolism and defluorination relative to the undeuterated compound: decreased metabolism

## FC(F)OC(F)(C(F)F)C(F)F [(CHF2)2CF-O-CHF2]
[2]; in vivo
  anesthetic properties: weak anesthetic in which deep anesthesia is not obtained
  electro-encephalographic and convulsant activity: abnormal electro-encephalographic and convulsant activity is observed

## COC(F)(C(F)(F)F)C(F)(F)F [CH3OCF(CF3)2]
[2]; U.S. Patent 3,683,092
  non-anesthetic up to (concentration): > 8 % by volume in oxygen

## FC(F)OCC(F)(F)C(F)(F)F [CHF2OCH2CF2CF3]
mice
  convulsions: produces convulsions
[2]; in vivo
  anesthetic properties: non-anesthetic up to its lethal concentration

## [2H]C([2H])(F)OC(C(F)(F)F)C(F)(F)F [D2-sevoflurane, fluoro-dideutero-methyl-1,1,1,3,3,3,-hexafluoro-2-propyl ether]
Male Sprague-Dawley rats
  time until rats became anesthetized after introduction of anesthetic: 4 to 6 min
[3]; similar experiments to those run with sevoflurane
  degradation with soda lime, compared with sevoflurane: essentially the same
[4]; isoniazid treated rats
  plasma fluoride liberated, % less than sevoflurane: 61%
  plasma fluoride, % less than enflurane anesthetized animals: 80%
[4]; phenobarbital treated animals
  plasma fluoride liberated, % less than sevoflurane: 66%
[4]; phenobarbital treated rats
  plasma fluoride, % less than enflurane anesthetized animals: 45%
[4]; untreated rats
  plasma fluoride liberated, % less than sevoflurane: 34%
  plasma fluoride, % less than enflurane anesthetized animals: 40%
Rat liver microsomes; Animal Treatment: Isoniazid
  defluorination by rat liver microsomes, nmol F^- /mg protein/30 min ± S.E.: 1.55 ± 0.39 nmol F^- /mg protein/30 min
Rat liver microsomes; Animal Treatment: None
  defluorination by rat liver microsomes, nmol F^- /mg protein/30 min ± S.E.: 0.62 ± 0.60 nmol F^- /mg protein/30 min
Rat liver microsomes; [7]
  defluorination by rat liver microsomes, nmol F^- /mg protein/30 min ± S.E.: 0.18 ± 0.03 nmol F^- /mg protein/30 min
Rat liver microsomes; microsomes from isoniazid treated rats
  percent decline from sevoflurane values (degree of inhibited metabolism): 79%
Rat liver microsomes; microsomes from phenobarbital and isoniazid treated rats, over a wide range of anesthetic concentrations (figures 1 and 2)
  defluorinated slower than sevoflurane (% less): 70-86%
Rat liver microsomes; microsomes from phenobarbital treated rats
  percent decline from sevoflurane values (degree of inhibited metabolism): 84%
Rat liver microsomes; microsomes from untreated rats
  percent decline from sevoflurane values (degree of inhibited metabolism): 68%
[5]
  production of volatile degradation by-products: virtually insignificant levels

## [2H]C(Cl)(Br)C(F)(F)F (stereo not drawn) [Deuterated Halothane]
[1]; Sipes et al., J. Pharmacol. Exp. Ther. 214: 716-720, 1980
  effect of deuteration on metabolism: inhibits its metabolism to trifluoroacetic acid, but not its metabolism to release fluoride

## FCOC(C(F)(F)F)C(F)(F)F [Sevoflurane, fluoromethyl-1,1,1,3,3,3-hexafluoro-2-propyl ether]
Male Sprague-Dawley rats
  time until rats became anesthetized after introduction of anesthetic: 4 to 6 min
[3]; 22°C
  degradation products with soda lime: some degradation products including "Compound A" were detected
[3]; 45°C
  degradation products with soda lime: substantial degradation products, including "Compound A", were produced
Rat liver microsomes; [7]
  defluorination by rat liver microsomes, nmol F^- /mg protein/30 min ± S.E.: 1.18 ± 0.06 nmol F^- /mg protein/30 min
[5]; exothermic temperature, soda lime core 44°C to 47°C, initial concentration 2.7%, flow 1.5 liters per minute
  time after circuit start at which degradation products were detected: about 1.5 hours
[5]; soda lime canister in ice bath, core 22°C to 27°C, run up to eight hours
  degradation products detected: no degradation products were detected
[5]
  production of volatile degradation by-products: virtually insignificant levels
[6]
  lower flammability limit in oxygen: about 11.8 volume percent

## FC(F)OC(F)(F)C(F)Cl (stereo not drawn) [enflurane]
Male Sprague-Dawley rats
  time until rats became anesthetized after introduction of anesthetic: 4 to 6 min
Rat liver microsomes; microsomes from isoniazid treated rats (figure 1)
  anesthetic concentration-dependent inhibition of metabolism: anesthetic concentration-dependent inhibition of metabolism

## FC(F)C(F)(F)COC(F)(F)F [trifluoromethyl-2,2,3,3-tetrafluoropropyl ether]
mice
  concentration causing violent convulsions and death (as low as): .5%

From EP0682649B1, “DEUTERATED SEVOFLURANE AS AN INHALATIONAL ANESTHETIC” (UNIVERSITY OF IOWA RESEARCH FOUNDATION, priority 1993, dated 1994)
